Laboratory results taken from patent EP4786455A1, “NOVEL PHTHALAZINE DERIVATIVE COMPOUND AS SOS1 INHIBITOR, AND USE THEREOF” (Hanmi Pharmaceutical Co., Ltd., priority 2023, dated 2025).

The compounds below were run against T1, SOS1 (Homo sapiens, UniProt Q07889) (assay: Inhibitory activity on SOS1-mediated GTP exchange (HTRF / TR-FRET nucleotide exchange assay on KRAS G12C)). Conditions: SOS1-mediated GTP exchange on GST-KRAS G12C (residues 2-169); SOS1-Strep catalytic domain (564-1049); GTP-DY-647P1; HTRF signal; 5-point concentration series up to 1,000 nM.
T1 construct: comprising amino acid residues 564-1049 corresponding to the catalytic domain; purchased Reaction Biology Corp. SOS1-Strep #MSC-11-502; GST-KRAS G12C #MSC-11-538
T1 sequence (Q07889 564-1049): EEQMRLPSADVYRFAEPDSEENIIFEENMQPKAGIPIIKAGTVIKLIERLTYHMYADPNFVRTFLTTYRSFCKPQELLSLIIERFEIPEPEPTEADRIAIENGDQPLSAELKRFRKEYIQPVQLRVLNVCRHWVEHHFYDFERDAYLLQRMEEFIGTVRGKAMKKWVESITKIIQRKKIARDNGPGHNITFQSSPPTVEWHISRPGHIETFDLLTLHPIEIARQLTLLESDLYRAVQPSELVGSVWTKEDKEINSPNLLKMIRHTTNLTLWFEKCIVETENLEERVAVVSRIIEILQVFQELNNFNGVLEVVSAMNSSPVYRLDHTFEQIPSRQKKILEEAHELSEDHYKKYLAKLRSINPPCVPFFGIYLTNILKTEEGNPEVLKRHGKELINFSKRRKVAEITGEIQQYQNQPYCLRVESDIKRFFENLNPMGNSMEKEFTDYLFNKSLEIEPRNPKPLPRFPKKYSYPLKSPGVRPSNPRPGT
Type: biochemical
Description: To evaluate whether the SOS1-mediated nucleotide exchange activity on KRAS G12C is inhibited by the compounds of the above Examples, a homogeneous time-resolved fluorescence (homogenous time-resolved fluorescence, HTRF) assay was performed using GST-KRAS G12C (#MSC-11-538) and SOS1-Strep (#MSC-11-502) obtained from Reaction Biology Corp. (USA, MA). The activity of SOS1 was determined by measuring the amount of GTP bound to the KRAS G12C protein based on the principle of time-resolved fluorescence resonance energy transfer (time-resolved fluorescence energy transfer, TR-FRET). Terbium (Terbium) conjugated to an anti-GST antibody bound to the GST tag of the GST-KRAS G12C protein served as a FRET donor, and GTP bound to the KRAS G12C protein was labeled with the fluorophore DY-647P1, serving as a FRET acceptor. Based on this principle, a higher HTRF or FRET signal is observed as more GTP is bound to KRAS G12C due to the SOS1-mediated exchange reaction in the assay.
In summary, a GST-labeled KRAS G12C protein (comprising amino acid residues 2-169), a […] SOS1 protein (comprising amino acid residues 564-1049 corresponding to the catalytic domain), an anti-GST antibody, labeled nucleotide GTP-DY-647P1, and the test compound were mixed in a buffer solution containing 20 mM HEPES (pH 7.4), 150 mM NaCl, 5 mM MgCl2, 1 mM dithiothreitol (DTT), 0.05% BSA, and 0.0025% NP40. The mixture was dispensed into a 384-well plate, incubated at room temperature, and the HTRF signal was measured using a PHERAstar microplate reader (BMG Labtech). The excitation wavelength was 337 nm, and emission was measured at 620/665 nm. A background signal value was determined from fluorescence measurements obtained in the absence of SOS1 protein and was subtracted from all measured HTRF values. A control value was determined from fluorescence measurements obtained in the absence of the synthesized compounds and was set as the 100% reference. Fluorescence signals were measured at compound concentrations of 0.1, 1, 10, 100, and 1,000 nM (5 points, 10-fold) or 1.6, 8, 40, 200, and 1,000 nM (5 points, 5-fold). The 50% inhibitory concentration (IC50) values of the compounds were calculated using GraphPad Prism.
IC50 values were denoted as +++ when 50 nM or less, ++ when greater than 50 nM and 100 nM or less, and + when greater than 100 nM.

Structure (SMILES)	IC50
CNc1cc2c(N[C@H](C)c3cccc(C#N)c3C)nnc(C)c2cc1C(=O)N1CCOCC1 [Example 1, (R)-2-methyl-3-(1-((4-methyl-7-(methylamino)-6-(morpholine-4-carbonyl)phthalazin-1-yl)amino)ethyl)benzonitrile]	≤ 50 nM
CNc1cc2c(N[C@H](C)c3cccc(C#N)c3C)nnc(C)c2cc1C(=O)N1CCSCC1 [Example 2, (R)-2-methyl-3-(1-((4-methyl-7-(methylamino)-6-(thiomorpholine-4-carbonyl)phthalazin-1-yl)amino)ethyl)benzonitrile]	≤ 50 nM
CNc1cc2c(N[C@H](C)c3cccc(C#N)c3C)nnc(C)c2cc1C(=O)N1CCSC1 [Example 3, (R)-2-methyl-3-(1-((4-methyl-7-(methylamino)-6-(thiazolidine-3-carbonyl)phthalazin-1-yl)amino)ethyl)benzonitrile]	≤ 50 nM
CNc1cc2c(N[C@H](C)c3cccc(C#N)c3C)nnc(C)c2cc1C(=O)N1CCS(=O)(=O)CC1 [Example 4, (R)-3-(1-((6-(1,1-dioxothiomorpholine-4-carbonyl)-4-methyl-7-(methylamino)phthalazin-1-yl)amino)ethyl)-2-methylbenzonitrile]	≤ 50 nM
CNc1cc2c(N[C@H](C)c3cccc(C#N)c3C)nnc(C)c2cc1C(=O)NC1CCOCC1 [Example 5, (R)-1-((1-(3-cyano-2-methylphenyl)ethyl)amino)-4-methyl-7-(methylamino)-N-(tetrahydro-2H-pyran-4-yl)phthalazine-6-carboxamide]	≤ 50 nM
CNc1cc2c(N[C@H](C)c3cccc(C#N)c3C)nnc(C)c2cc1C(=O)N(C)C1CCOCC1 [Example 6, (R)-1-((1-(3-cyano-2-methylphenyl)ethyl)amino)-N,4-dimethyl-7-(methylamino)-N-(tetrahydro-2H-pyran-4-yl)phthalazine-6-carboxamide]	≤ 50 nM
CNc1cc2c(N[C@H](C)c3cccc(C#N)c3C)nnc(C)c2cc1C(=O)N1CC2COCC2C1 (stereo partly drawn) [Example 7, 3-((1R)-1-((6-(hexahydro-1H-furo[3,4-c]pyrrole-5-carbonyl)-4-methyl-7-(methylamino)phthalazin-1-yl)amino)ethyl)-2-methylbenzonitrile]	≤ 50 nM
CNc1cc2c(N[C@H](C)c3cccc(C#N)c3C)nnc(C)c2cc1C(=O)N1CCN(C)CC1 [Example 8, (R)-2-methyl-3-(1-((4-methyl-7-(methylamino)-6-(4-methylpiperazine-1-carbonyl)phthalazin-1-yl)amino)ethyl)benzonitrile]	≤ 50 nM
CNc1cc2c(N[C@H](C)c3cccc(C#N)c3C)nnc(C)c2cc1C(=O)N1CCNCC1 [Example 9, (R)-2-methyl-3-(1-((4-methyl-7-(methylamino)-6-(piperazine-1-carbonyl)phthalazin-1-yl)amino)ethyl)benzonitrile]	≤ 50 nM
CNc1cc2c(N[C@H](C)c3cccc(C#N)c3C)nnc(C)c2cc1C(=O)N1CCC(F)(F)CC1 [Example 10, (R)-3-(1-((6-(4,4-difluoropiperidin-1-carbonyl)-4-methyl-7-(methylamino)phthalazin-1-yl)amino)ethyl)-2-methylbenzonitrile]	≤ 50 nM
CNc1cc2c(N[C@H](C)c3cccc(C#N)c3C)nnc(C)c2cc1C(=O)N1CC2(COC2)C1 [Example 11, (R)-2-methyl-3-(1-((4-methyl-7-(methylamino)-6-(2-oxa-6-azaspiro[3.3]heptane-6-carbonyl)phthalazin-1-yl)amino)ethyl)benzonitrile]	≤ 50 nM
CCN1CCN(C(=O)c2cc3c(C)nnc(N[C@H](C)c4cccc(C#N)c4C)c3cc2NC)CC1 [Example 12, (R)-3-(1-((6-(4-ethylpiperazine-1-carbonyl)-4-methyl-7-(methylamino)phthalazin-1-yl)amino)ethyl)-2-methylbenzonitrile]	≤ 50 nM
CNc1cc2c(N[C@H](C)c3cccc(C#N)c3C)nnc(C)c2cc1C(=O)N1CCN(C2CC2)CC1 [Example 13, (R)-3-(1-((6-(4-cyclopropylpiperazine-1-carbonyl)-4-methyl-7-(methylamino)phthalazin-1-yl)amino)ethyl)-2-methylbenzonitrile]	≤ 50 nM
CNc1cc2c(N[C@H](C)c3cccc(C#N)c3C)nnc(C)c2cc1C(=O)N1CCCC1 [Example 14, (R)-2-methyl-3-(1-((4-methyl-7-(methylamino)-6-(pyrrolidine-1-carbonyl)phthalazin-1-yl)amino)ethyl)benzonitrile]	≤ 50 nM
CNc1cc2c(N[C@H](C)c3cccc(C#N)c3C)nnc(C)c2cc1C(=O)N1CCCCC1 [Example 15, (R)-2-methyl-3-(1-((4-methyl-7-(methylamino)-6-(piperidine-1-carbonyl)phthalazin-1-yl)amino)ethyl)benzonitrile]	≤ 50 nM
CNc1cc2c(N[C@H](C)c3cccc(C#N)c3C)nnc(C)c2cc1C(=O)N1CCC1 [Example 16, (R)-3-(1-((6-(azetidine-1-carbonyl)-4-methyl-7-(methylamino)phthalazin-1-yl)amino)ethyl)-2-methylbenzonitrile]	≤ 50 nM
CNc1cc2c(N[C@H](C)c3cccc(C#N)c3C)nnc(C)c2cc1C(=O)N1CC(F)C1 [Example 17, (R)-3-(1-((6-(3-fluoroazetidine-1-carbonyl)-4-methyl-7-(methylamino)phthalazin-1-yl)amino)ethyl)-2-methylbenzonitrile]	≤ 50 nM
CNc1cc2c(N[C@H](C)c3cccc(C#N)c3C)nnc(C)c2cc1C(=O)N1CCC2(CC2)C1 [Example 18, (R)-2-methyl-3-(1-((4-methyl-7-(methylamino)-6-(5-azaspiro[2.4]heptane-5-carbonyl)phthalazin-1-yl)amino)ethyl)benzonitrile]	≤ 50 nM
CNc1cc2c(N[C@H](C)c3cccc(C#N)c3C)nnc(C)c2cc1C(=O)N1CC2CC1CO2 (stereo partly drawn) [Example 19, 3-((1R)-1-((6-(2-oxa-5-azabicyclo[2.2.1]heptane-5-carbonyl)-4-methyl-7-(methylamino)phthalazin-1-yl)amino)ethyl)-2-methylbenzonitrile]	≤ 50 nM
CNc1cc2c(N[C@H](C)c3cccc(C#N)c3C)nnc(C)c2cc1C(=O)N1CCN(C2CCCCC2)CC1 [Example 20, (R)-3-(1-((6-(4-cyclohexylpiperazine-1-carbonyl)-4-methyl-7-(methylamino)phthalazin-1-yl)amino)ethyl)-2-methylbenzonitrile]	≤ 50 nM
CNc1cc2c(N[C@H](C)c3cccc(C#N)c3C)nnc(C)c2cc1C(=O)N1CCN(C(C)C)CC1 [Example 21, (R)-3-(1-((6-(4-isopropylpiperazine-1-carbonyl)-4-methyl-7-(methylamino)phthalazin-1-yl)amino)ethyl)-2-methylbenzonitrile]	≤ 50 nM
CNc1cc2c(N[C@H](C)c3cccc(C#N)c3C)nnc(C)c2cc1C(=O)N1CCC(N2CCOCC2)CC1 [Example 22, (R)-2-methyl-3-(1-((4-methyl-7-(methylamino)-6-(4-morpholinopiperidin-1-carbonyl)phthalazin-1-yl)amino)ethyl)benzonitrile]	≤ 50 nM
CNc1cc2c(N[C@H](C)c3cccc(C#N)c3C)nnc(C)c2cc1C(=O)NCCN1CCOCC1 [Example 23, (R)-1-((1-(3-cyano-2-methylphenyl)ethyl)amino)-4-methyl-7-(methylamino)-N-(2-morpholinoethyl)phthalazine-6-carboxamide]	≤ 50 nM
CNc1cc2c(N[C@H](C)c3cccc(C#N)c3C)nnc(C)c2cc1C(=O)N1CCCOCC1 [Example 24, (R)-2-methyl-3-(1-((4-methyl-7-(methylamino)-6-(1,4-oxazepane-4-carbonyl)phthalazin-1-yl)amino)ethyl)benzonitrile]	≤ 50 nM
